US20120114588A1, “IBAT INHIBITORS FOR TREATMENT OF METABOLIC DISORDERS AND RELATED CONDITIONS” (ALBIREO AB, priority 2010, published 2012)
pIC50: −log10 of the molar value.

What was measured:
[1] = biological target: T1, Ileal Bile Acid Transporter Human (Homo sapiens, UniProt Q12908); experiment: ISBT Hu HEK Uptake SPA: Human HEK Glycocholic acid Uptake Radiometric SPA; format: cell-based; conditions: human IBAT in HEK cells
T1 construct: expressed in transfected cells; host or cells: HEK
T1 sequence (Q12908 1-348): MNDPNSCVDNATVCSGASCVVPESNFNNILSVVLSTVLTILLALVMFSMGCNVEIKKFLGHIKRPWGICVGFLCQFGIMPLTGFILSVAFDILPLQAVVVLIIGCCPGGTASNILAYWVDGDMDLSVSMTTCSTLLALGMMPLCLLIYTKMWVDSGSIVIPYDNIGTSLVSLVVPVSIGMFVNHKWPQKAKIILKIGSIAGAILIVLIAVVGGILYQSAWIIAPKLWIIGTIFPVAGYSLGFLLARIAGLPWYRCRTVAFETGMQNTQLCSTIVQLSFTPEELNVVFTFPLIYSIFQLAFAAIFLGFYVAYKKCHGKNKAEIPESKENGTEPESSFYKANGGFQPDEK
Description: ISBT Hu HEK Uptake SPA 13203 IBAT HUM Ileal Bile Acid Transporter Human HEK Glycocholic acid Uptake Radiometric—SPA Inhibitor IC50 Mean IC50 (nM) was determined for the compounds of examples 1-14

IBAT = biological target: T2, IBAT (Mus musculus, UniProt P70172); experiment: 75SeHCAT intestinal absorption (faecal excretion / body retention) in ApoE knock out mice; format: in vivo; conditions: single oral dose 0.156 μmol/kg, 75SeHCAT given 30 min later, 24 h collection, read-out: % inhibition 0.156 μmol/kg (mean IBAT inhibitory effect)
T2 construct: from tissue; host or cells: living ApoE knock-out C57BL/6 mice (intestine, in vivo)
T2 sequence (P70172 1-348): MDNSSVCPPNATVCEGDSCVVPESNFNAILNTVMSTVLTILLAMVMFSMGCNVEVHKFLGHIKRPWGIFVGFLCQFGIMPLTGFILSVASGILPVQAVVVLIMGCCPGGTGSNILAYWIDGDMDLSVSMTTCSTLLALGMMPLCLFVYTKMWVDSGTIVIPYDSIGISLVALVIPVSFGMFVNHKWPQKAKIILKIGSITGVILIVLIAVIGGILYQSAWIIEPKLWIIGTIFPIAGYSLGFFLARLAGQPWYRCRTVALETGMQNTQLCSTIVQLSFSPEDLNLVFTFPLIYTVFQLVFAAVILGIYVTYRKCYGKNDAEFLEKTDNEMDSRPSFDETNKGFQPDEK
Description: Species Mouse; Strain ApoE knock out; Substrain C57BL/6; Sex Female; Total No. of animals 70; Body weight range 20 g to 22 g; Supplier Mollegaard's Breeding (Skensved, Denmark); Identification method ID cards (bar code).
Acclimatisation At least one week at the Section of Laboratory; Animal Resource at AstraZeneca; Housing conditions Kept five by five in cages (Makrolon III, 7 dm2) in a room with regulated temperature ([…]), relative humidity (40% to 60%) and a 12/12 hours light/dark cycle. Diet Free access to R3 pellets (Lactamin, Vadstena, Sweden) during the housing and experimental period. Water Free access to tap water during the housing and experimental period.
Volume(s) of administration 0.1 mL per mousen […]
The animals were orally administered vehicle or Example 14 (0.156 , 0.625 or 2.5 pmol/kg) at 13:00 o'clock on the experimental day. […] The gamma radioactivities of 75SeHCAT in the faeces and in the gall bladder-intestine were separately counted by 1282 CompuGamma CS Gamma counter (Wallac oy, Turku, Finland). The stability as well as the quantity of the 75SeHCAT administered to each mouse, were controlled with an additional 75SeHCAT aliquot following the same experimental process as other tested samples in the study. […]
The mean IBAT inhibitory effect (%) at a dose (pmol/kg): 0.156 was determined for the compounds of examples 1-14 and is reported in Table 1.

Slc10a2 protein = biological target: T3, Slc10a2 protein (Mus musculus, UniProt P70172); experiment: ob/ob mice gavaged with Slc10a2 inhibitor for 11 days: plasma, liver and distal ileum analyses; format: in vivo
T3 construct: from tissue; host or cells: living male ob/ob mice (Taconic), ileum in vivo
T3 sequence (P70172 1-348): T2 sequence (P70172 1-348)
Source text: A diet enriched in sucrose (D12329, Research Diets, NJ) together with drinking water supplemented with 10% fructose was used for the high carbohydrate experiment. Animals had free access to the diet for two weeks. Control animals received standard mouse chow and tap water. Male ob/ob animals were from Taconic, DK. Ob/ob animals were gavaged with a specific Slc10a2 inhibitor Example 14 or a control vehicle for 11 days. Animals had free access to food and water. All animal care and experiments were conducted in accordance with accepted standards of humane animal care and approved by the Ethics Committee of Goteborg University.
Blood was centrifuged, and plasma was analyzed for total cholesterol and TGs using the IL TestTM cholesterol 181618-10 and TG 181610-60 kits on the Monarch 2000 system (IL Scandinavia, Gothenburg, Sweden). Lipoprotein cholesterol profiles were obtained by separation of […] of plasma using a micro fast protein liquid chromatography (FPLC) system for the generation of lipoprotein profiles (15). Plasma insulin levels were analyzed using a rodent insulin RIA kit (Linco, St. Charles, Mich.). Total plasma glucose was analyzed using the IL Test (IL Scandinavia, Gothenburg, Sweden) on the Monark 2000 system. Blood glucose was determined using a Bayer Elite glucometer (Bayer diagnostics, Germany). Plasma free fatty acids were analyzed employing a commercial 3 NEFA kit (Wako Chemicals
Total RNA was extracted from frozen livers or distal ileum with TRIzol reagent (Invitrogen, Carlsbad, Calif.). The RNA was DNase-treated with RQ1 Dnase (Promega, Madison, Wis.). cDNA synthesis and quantitative real time PCR was performed employing HPRT as endogenous control (18). Primer and probe information are available upon request.
A ligand blot employing ^125I-labeled rabbit β-VLDL was used to detect LDL receptors in liver as described (19). Hepatic SR-BI was assayed by immunoblot using a rodent specific rabbit polyclonal antibody (Novus Biologicals Inc., Littleton, Colo.), as described (20). Cyp7a1 protein levels were assayed in liver microsomal protein samples by immunoblot using a rabbit polyclonal antibody directed against the C-terminus of the CYP7A1 (18). To detect SREBP1 protein, cytoplasmic and nuclear protein preparations from liver were performed using the NE—PER reagent (Pierce), including Complete protease inhibitor (Roche), 1 mM phenyl-methylsulfonyl fluoride, 0.5 mM leupeptin, 5 μg/ml Calpain inhibitor I (Biomol, Pa.), following the manufacturer's instructions. 50 μg and 25 μg of cytoplasmic and nuclear liver protein fractions, respectively, were electrophoresed on NuPage Bis-Tris gels (Invitrogen) and transferred to nitrocellulose membranes. Membranes were blocked in 5% skimmed milk powder and incubated with a mouse monoclonal antibody raised against the N′-terminus of SREBP1 (Labvision Corporation, Calif.) at 1.5 μg/mL in 5% skimmed milk powder for two hours at room temperature. An HRP conjugated goat anti-mouse F(ab)2 antibody (Pierce) was used for detection of specific signals together with Supersignal reagent (Pierce) and a Fuji BAS 1800 analyzer (Fuji Photo Film Co.). To analyze phosphorylated liver proteins by western blot, total liver protein homogenates were prepared from frozen tissue by homogenization using a polytron followed by sonication in a buffer containing 20 mM Tris-Hcl, pH 7,4, 1% Triton X-100, 10% Glycerol, 150 mM NaCl, 2 mM EDTA, 25 mM betaglycerophosphate, 20 mM sodium floride, 1 mM sodium orthovanadate, 2 mM sodium pyrophosphate, 1 mM benzamidine, 1 mM phenyl-methylsulfonyl fluoride, 0.5 mM leupeptin, Complete proteinase inhibitor (Roche), and then centrifuged at 14 000 rpm in a microcentrifuge, and the supernatant was recovered. 50 μg protein was loaded on NuPage Bis-Tris gels (Invitrogen) and transferred to nitrocellulose membranes. […]

[2] = Phase IIb placebo-controlled study in patients with Chronic Idiopathic Constipation: plasma glucose; format: in vivo, human (patients); conditions: for Glucose concentration, Baseline, Mean ± SD: 10 mg group
Source text: In a Phase Ilb, Double-blind, Randomised, Placebo-controlled, Multi-centre, Dose-finding,
Efficacy and Safety of a Range of Doses of the substance according to Example 14 in Patients with Chronic Idiopathic Constipation in addition also have glucose values above Upper limit of normal (ULN), treated for 56 days. The patient was a male or non-pregnant female 20 years of age and 80 years of age with body mass index (BMI) 18.5 but <35.
p-values were obtained from an analysis of covariance with treatment group, demographic group and treatment-by-demographic group as fixed factors and baseline value as a covariate in the model. No adjustment for multiple comparisons was made.

[3] = western blot with phosphospecific antibodies

Question: With `CCCCC1(CCCC)CN(c2ccccc2)c2cc(SC)c(OCC(=O)N[C@@H](C(=O)N[C@@H](CC)C(=O)O)c3ccc(O)cc3)cc2S(=O)(=O)C1` [Example 11, 1,1-Dioxo-3,3-dibutyl-5-phenyl-7-methylthio-8-(N-{(R)-α-[N′-((S)-1-carboxypropyl)carbamoyl]-4-hydroxybenzyl}carbamoylmethoxy) -2,3,4,5-tetrahydro-1,5-benzothiazepine] as the compound, how does the pIC50 [1] read?
Answer: 9.82

Question: And the inhibition at 0.156 µmol/kg (IBAT)?
Answer: 63%

Question: Which results are given for `CCCCC1(CCCC)CN(c2ccccc2)c2cc(SC)c(OCC(=O)N[C@@H](C(=O)NCC(=O)O)c3ccccc3)cc2S(=O)(=O)C1` [Example 14, 1,1-Dioxo-3,3-dibutyl-5-phenyl-7-methylthio-8-(N-{ (R)-1′-phenyl-1′-[N′-(carboxymethyl)carbamoyl]methyl}carbamoylmethoxy)-2,3,4,5-tetrahydro-1,5-benzothiazepine]?
Answer: Total plasma TG levels reduced (Slc10a2 protein; 11 days treatment): 73%; Fasting levels of glucose reduced vs vehicle (Slc10a2 protein; 11 days treatment, blood glucose): 30%; Fasting insulin levels reduced (Slc10a2 protein; 11 days treatment, plasma): 50%; Total plasma cholesterol increased (Slc10a2 protein; 11 days treatment, tendency): 16%; FGF15 mRNA level (Slc10a2 protein; 11 days, distal ileum): significantly reduced; FXR gene expression (Slc10a2 protein; 11 days, distal ileum): unaltered; IBABP mRNA level (Slc10a2 protein; 11 days, distal ileum): significantly reduced; SHP mRNA level (Slc10a2 protein; 11 days, distal ileum): significantly reduced; Hepatic G6Pase expression (Slc10a2 protein; 11 days, liver): reduced; Hepatic GK mRNA level (Slc10a2 protein; 11 days, liver): increased; Hepatic LPK mRNA reduced (Slc10a2 protein; 11 days, liver): 30%; Hepatic PEPCK expression (Slc10a2 protein; 11 days, liver): reduced; Hepatic SREBP1c mRNA levels (Slc10a2 protein; 11 days, liver): markedly reduced; Hepatic cholesterol and TG content (Slc10a2 protein; 11 days, liver, vs control): no difference; Hepatic ACC mRNA level decreased (Slc10a2 protein; 11 days, liver, vs vehicle): 50%; Hepatic FAS mRNA level decreased (Slc10a2 protein; 11 days, liver, vs vehicle): 80%; Hepatic SCD1 mRNA level (Slc10a2 protein; 11 days, liver, vs vehicle): not significantly altered; Hepatic mRNA expression of FGF21 (Slc10a2 protein; 11 days, liver, vs vehicle): doubled; Hepatic mRNA level of CYP7A1 (Slc10a2 protein; 11 days, liver, vs vehicle): increased; Akt serine 473 phosphorylation in liver lysates (Slc10a2 protein; [3]): reduced; Mek1/2-Erk1/2 pathway activation in liver (Slc10a2 protein; [3]): reduced activation; pIC50 [1]: 8.92; Glucose concentration, Baseline, Mean ± SD ([2]; patients with glucose >ULN, n=4, before treatment): 129.8 ± 7.4 mg/dL; Glucose concentration, End of Treatment, Mean ± SD ([2]; patients with glucose >ULN, 10 mg, 56 days, n=4): 82 ± 10.23 mg/dL; Glucose concentration % change baseline to end of treatment ([2]; patients with glucose >ULN, 10 mg, 56 days, p 0.013 vs placebo): −36.9%; Reduction of glucose concentration, baseline vs end of treatment ([2]; patients with glucose higher than ULN, 10 mg, 56 days): 36%; Change of glucose concentration, baseline vs end of treatment ([2]; patients with glucose lower or equal to ULN): did not show any significant change; Glucose concentration, Baseline, Mean ± SD ([2]; patients with glucose ≦ULN, n=25, before treatment): 91.3 ± 7.52 mg/dL; Glucose concentration, End of Treatment, Mean ± SD ([2]; patients with glucose ≦ULN, 10 mg, 56 days, n=25): 90.6 ± 12.96 mg/dL; Glucose concentration % change baseline to end of treatment ([2]; patients with glucose ≦ULN, 10 mg, 56 days, p 0.653 vs placebo): −1%
